One experiment concerns the target T1, Aβ42 monomer (Homo sapiens, UniProt P05067).
T1 construct: Small red spheres mark the Aβ42 peptide C-terminal residue, A42; purchased Sigma-Aldrich Corp
Description: Sterol binding to Aβ42, equilibrium DHE fluorescence titrations. The settings on record: direct Aβ42 titration of DHE fluorescence; single-binding-site fit; K2PO4 50 mM, pH 7.4, 25 °C; read-out: Kd. Here is the method: CH ([27]) and CS ([28]) increase the rate of Aβ aggregation and CH is thought to stabilize fibrils ([29]); yet, the affinities of CH and its metabolites for the Aβ peptide monomer have not been determined. Here, CH and CS affinities for the Aβ42 monomer are established using dehydroergosterol (DHE)—a fluorescent CH analog ([30]) used as a competitive probe to determine CH and CS affinities. Aβ42 monomers were prepared as previously described ([31]) (see Methods). […] Under this condition, Aβ42 essentially quantitatively binds DHE until its concentration exceeds that of DHE, which results in a breakpoint in the titration curve that yields the stoichiometry. The arrow seen descending from the breakpoint indicates a stoichiometry of 1:1, which agrees well with the ∼1:1 CH-metabolite:Aβ stoichiometry estimated from analysis of senile plaques micro-dissected from AD-patient brain tissue ([15]).
Figure 1 Sterol binding to Aβ42at equilibrium.A, DHE affinity for monomeric Aβ4_2. […] Binding was detected via the binding-induced 4.4 (±0.2)-fold increase in DHE fluorescence (λex = 325 nm, λem= 375 nm). Fluorescence intensity, I, is plotted relative to the intensity at zero titrant, I0. Titrations were performed independently in triplicate and the line passing through the data is the least-squares fit to a single-binding-site model. B, Aβ42:DHE stoichiometry. […] C. DHE fluorescence (λex = 325 nm, λem = 375 nm) is plotted versus [Aβ42]/[DHE]. The line descending from the titration breakpoint indicates a stoichiometry of 1:1. C and D, CH and CS affinities. Affinities were determined by competitive binding versus DHE. […] C, was titrated with CH (5.0–500 nM, 0.05–5 × Kd) or CS (5.0–500 nM, 0.15–[…] × Kd). Binding was monitored via the decrease in DHE fluorescence (λex = 325, λem = 375) caused by DHE displacement from Aβ42. Controls ensured that <2.0% of Aβ42 oligomerized during the measurement. Titrations were performed in triplicate and averaged. The solid lines through the data represent least-squares fits to a competitive single-binding-site model. C and D, insets highlight the behavior of the titration over ligand concentrations that span their reported CMCs (indicated by arrows). […]
DHE/Aβ42 binding interactions were monitored via the binding-induced 4.4-fold change in DHE fluorescence (λex = 325 nm, λem= 375 nm). […]
The affinities of CH and CS for Aβ42 were determined in competitive binding studies versus DHE. Binding was detected via the fluorescence decrease (λex= 325 nm, λem = 375 nm) caused by DHE displacement. […] Imax = (fraction DHE-bound to peptide at zero competitive ligands)/4.4 — the fold fluorescence change associated with DHE dissociation, see Figure 1A.

Another experiment has as its target T2, Aβ42 (Homo sapiens, UniProt P05067).
T2 construct: Small red spheres mark the Aβ42 peptide C-terminal residue, A42; purchased Sigma-Aldrich Corp
Description: Sterol binding to Aβ42, pre-steady-state stopped-flow fluorescence. Here is the method: To establish the rates at which Aβ42•ligand complexes form and dissociate, the rate constants governing the binding reactions were determined. DHE binding was monitored in real time using a stopped-flow fluorimeter via binding-induced changes in DHE fluorescence. The reactions are pseudo first order in [ligand] and kobs was obtained by least-squares fitting progress curves to a single-exponential equation ([44], [45]). kobs values were determined (in triplicate) at a series of Aβ42 concentrations and the averaged values are plotted versus [Aβ42] in Figure 2B. kon and koff are given by the slope and intercept of the kobs-versus-[Aβ42] plot obtained by linear least-square fitting ([44], [45]). […] The rate constants are compiled in Table 1.
Figure 2 Sterol binding to Aβ42—pre-steady state studies.A, DHE binding. Reactions were monitored via binding induced changes in DHE fluorescence using a stopped-flow fluorimeter (λex = 325, λem > 400 nm). Fluorescence intensity, I, is reported relative to the intensity in the absence of ligand, Io. […] C was rapidly mixed (1:1, v/v) with a solution identical except that Aβ42 was replaced by DHE (40 nM, 2.7 × Kd). The bindingreaction curve shown is the average of five independent progress curves. The averaged curve was a least-squares fit to a single-exponential equation and the resulting best fit (indicated by the red line) yielded kobs. B, DHE kon and koff. kobs values obtained as in Panel A were determined in triplicate at varying Aβ42 concentrations and the averaged values are shown plotted versus [Aβ42]. kon and koff are given by the slope and intercept of a linear least-squares fit of the kobsversus [Aβ42] plot. C and D, CH and CS displacement reactions.
Pre-steady-state binding of sterols to Aβ42 was monitored via the binding-induced change in DHE fluorescence (λex = 325, λem > 400 nm) using an Applied Photophysics SX20 stopped-flow fluorimeter.
Three progress curves (each an average of five independently obtained curves) were collected at five separate Aꞵ42 concentrations. The observed rate constant (kobs) at a given [Aβ42] was obtained by fitting the average of the three curves to a single-exponential equation using Pro-K software ([75]). kon and koff were obtained from the slopes and intercepts predicted by linear least-squares analysis of kobs versus [Aβ42] plots.
C. […] Progress curves were determined in triplicate and koff was obtained by least-squares fitting the averaged curves to a single-exponential equation using Pro-K.

The results in this text go back to publication PMC10704437, “Sterol-activated amyloid beta fibril formation” (The Journal of Biological Chemistry, 2023).

T2 sequence (P05067 672-713 limits assumed): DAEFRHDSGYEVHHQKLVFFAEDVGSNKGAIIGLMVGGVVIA
T1 sequence (P05067 672-713 limits assumed): as above

Usually koff stands for a measure of how fast the partners let go of each other. Low readings indicate slow dissociation, high ones fast dissociation. In general, kon refers to a measure of how fast the partners come together. A lower kon goes with slow association. For `CC(C)[C@@H](C)/C=C/[C@@H](C)[C@H]1CC[C@H]2C3=CC=C4C[C@@H](O)CC[C@]4(C)C3=CC[C@]12C` [DHE, dehydroergosterol, reference compound], the Kd at Aβ42 monomer was 0.016 µM; at Aβ42 (ratio of rate constants, read-out: koff/kon) it was 0.017 µM. For the same compound, the dissociation rate constant (koff) at Aβ42 (intercept of kobs versus [Aβ42] plot, stopped-flow, pH 7.4, 25 °C) came out at 1 s⁻¹. For the same compound, on Aβ42 (slope of kobs versus [Aβ42] plot, stopped-flow, pH 7.4, 25 °C), the kon was 6e+07 M⁻¹ s⁻¹.
